Data taken from patent US8841319B2, “Use of 3-(indolyl)- or 3-(azaindolyl)-4-arylmaleimide derivatives in leukemia management” (Johannes Gutenberg-Universitat Mainz, priority 2007, dated 2014).

Key:
[1] = test system: STAT5, ERK and AKT; test: Western blotting of downstream kinase targets; type: cell-based
Method: 2×10^6 cells were incubated in the presence of various inhibitor concentrations alone and in combination for 1 hour at 37° C. Preparation of cellular lysates was performed as described previously (Kindler, T., Breitenbuecher, F., Kasper, S., Estey, E., Giles, F., Feldman, E., Ehninger, G., Schiller, G., Klimek, V., Nimer, S. D., Gratwohl, A., Choudhary, C. R., Mueller-Tidow, C., Serve, H., Gschaidmeier, H., Cohen, P. S., Huber, C. & Fischer, T. (2005) Identification of a novel activating mutation (Y842C) within the activation loop of FLT3 in patients with acute myeloid leukemia (AML). Blood, 105, 335-340). Protein lysates were subjected to SDS polyacrylamid gel electrophoresis (SDS-PAGE) and blotted onto nitrocellulose membrane (Amersham, Freiburg, Germany) as previously described (Kindler, et al 2003). The following antibodies were used: anti-phospho-FLT3, anti-phospho-STAT5 (pTyr694/699), anti-phospho AKT (pSer473), anti-phospho ERK (pThr202/pTyr204) (all Cell Signaling Technology™, Frankfurt, Germany), anti-FLT3, anti-AKT and anti-STAT5 (Santa Cruz, Heidelberg, Germany), and anti-β-Actin (ICN). Densitometric analysis was performed using the program Gel-Pro Analyzer®.

[2] = test system: murine 32D-FLT3-ITD cells; test: Apoptosis assay by cell cycle analysis (sub-G1 fraction) in 32D-FLT3-ITD cells; type: cell-based; conditions: 48 h incubation
Excerpt: A human FLT3-ITD construct, subcloned into the pAL expression vector under control of the 5′ long terminal repeat (LTR) of the Moloney murine sarcoma virus (MoMSV) and the plasmid pMAM/BSD were used as previously described (Mizuki, M., Schwable, J., Steur, C., Choudhary, C., Agrawal, S., Sargin, B., Steffen, B., Matsumura, I., Kanakura, Y., Bohmer, F. D., Muller-Tidow, C., Berdel, W. E. & Serve, H. (2003) Suppression of myeloid transcription factors and induction of STAT response genes by AML-specific FLT3 mutations. Blood, 101, 3164-3173). The N676K point mutation was introduced into this FLT3-ITD construct (Medigenomix Martinsried, Germany). […]
The induction of apoptosis in murine 32D-FLT3-ITD cells measured by sub-G1-fraction in cell cycle analysis upon 48 h incubation with two 3-(indolyl)- and 3-(azaindolyl)-4-phenylmaleimide derivatives (DHF125 and DHF150) was evaluated.

[3] = test system: FLT3-ITD-positive cells; test: Drug combination with chemotherapy, Chou-Talalay plot (CompuSyn); type: cell-based
Method: The chemotherapeutic agents cytarabine and daunorubicine were dissolved and diluted in aqua dest. Equivalent doses of DMSO were added when used for combination treatment.
For definition of synergism and/or antagonism in drug combinations we used the CompuSyn™ software (Chou, T C and Martin, N; ComboSyn, Inc. Paramus, N. J., USA) as previously described (Chou, T. C. (2006) Theoretical basis, experimental design, and computerized simulation of synergism and antagonism in drug combination studies. Pharmacol Rev, 58, 621-681).

[4] = test system: FLT3-WT cells; test: Apoptosis assay by cell cycle analysis (sub-G1 fraction) in FLT3-WT cells; type: cell-based; conditions: up to 10 μM, 48 h incubation
[5] = test system: non-malignant bone marrow cells; test: Colony assay of non-malignant bone marrow cells; conditions: day 10
Method: Bone-marrow MNCs were isolated as indicated above. Bone marrow samples were obtained from patients in CR after NHL or AML treatment or without evidence of any malignant bone marrow infiltration. 1×10^5 cells were plated in 1.1 ml Methocult™ (GF H4534) “Complete” Methylcellulose Medium with recombinant cytokines (StemCell Technologies, Vancouver, Canada) and incubated for 10 days at 37° C. in duplicate. Colony formation was counted on day 10.

[6] = test system: primary AML blasts harboring the FLT3-ITD mutation; test: Apoptosis (sub-G1 fraction, FACS) in primary AML blasts; type: cell-based, human; conditions: primary AML blasts with FLT3-ITD mutation, 72 h incubation
Method: Transfected murine 32D cells (1×10^5 cells/well) were incubated in 2 ml RPMI medium supplemented with 10% FCS with different inhibitor concentrations for 48 hours at 37° C. Primary human cells (2×10^5 cells/well) were incubated for 72 hours at 37° C. After incubation, cells were washed with ice cold PBS, pelleted and mixed with 300 μl of propidium-iodide-buffer (containing 50 μg/ml PI in 0.1% sodium citrate plus 0.1% Triton X 100, Sigma) for 30 minutes at 4° C. Cell cycle analysis was performed as described previously (Nicoletti, I., Migliorati, G., Pagliacci, M. C., Grignani, F. & Riccardi, C. (1991) A rapid and simple method for measuring thymocyte apoptosis by propidium iodide staining and flow cytometry. J Immunol Methods, 139, 271-279) using a FACSCanto™ flow cytometer (BD Biosciences, Heidelberg, Germany).
BM- and PB-samples with heparin as anticoagulant were obtained from AML patients or donors with no evidence of malignant bone marrow infiltration after informed consent in a study approved by the local ethics committee. Mononuclear cells (MNC) were isolated immediately by means of Ficoll-Hypaque (Seromed, Berlin, Germany) density gradient centrifugation. […]
Primary AML blasts at primary diagnosis were incubated for 72 h with both 3-(indolyl)- and 3-(azaindolyl)-4-phenylmaleimide derivatives. Induction of apoptosis was measured by sub-G1-fraction in FACS analysis. […]

[7] = target: T1, FLT3-kinase (Homo sapiens, UniProt P36888); test: FLT3-kinase assay at two ATP concentrations; type: biochemical
T1 sequence (P36888 27-993): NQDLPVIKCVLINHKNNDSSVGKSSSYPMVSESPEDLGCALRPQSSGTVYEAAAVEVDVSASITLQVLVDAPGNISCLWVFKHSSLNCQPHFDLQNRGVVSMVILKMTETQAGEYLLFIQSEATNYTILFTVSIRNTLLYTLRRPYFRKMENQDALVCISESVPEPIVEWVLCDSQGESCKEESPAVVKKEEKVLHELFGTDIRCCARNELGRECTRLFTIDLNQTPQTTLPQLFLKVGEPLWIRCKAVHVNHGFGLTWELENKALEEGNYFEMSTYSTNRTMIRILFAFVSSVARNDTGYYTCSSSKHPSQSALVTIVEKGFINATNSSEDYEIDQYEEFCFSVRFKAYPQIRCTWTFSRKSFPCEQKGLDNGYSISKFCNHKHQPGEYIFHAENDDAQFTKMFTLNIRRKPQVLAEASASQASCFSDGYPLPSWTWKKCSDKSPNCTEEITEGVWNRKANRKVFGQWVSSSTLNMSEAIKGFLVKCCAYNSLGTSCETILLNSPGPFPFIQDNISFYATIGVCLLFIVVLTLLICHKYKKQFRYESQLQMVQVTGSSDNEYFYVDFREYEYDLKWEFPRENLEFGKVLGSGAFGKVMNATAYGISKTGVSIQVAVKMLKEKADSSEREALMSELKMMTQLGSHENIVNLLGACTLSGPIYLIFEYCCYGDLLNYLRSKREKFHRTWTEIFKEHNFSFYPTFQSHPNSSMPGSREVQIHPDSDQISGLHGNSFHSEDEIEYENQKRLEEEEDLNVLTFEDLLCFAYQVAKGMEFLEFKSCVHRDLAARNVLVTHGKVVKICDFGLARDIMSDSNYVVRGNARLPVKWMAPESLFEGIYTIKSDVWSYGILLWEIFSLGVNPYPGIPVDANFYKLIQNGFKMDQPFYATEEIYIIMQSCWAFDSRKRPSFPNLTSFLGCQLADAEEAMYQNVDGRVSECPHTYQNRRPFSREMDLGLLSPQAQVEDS

[8] = test system: FLT3; test: Immunoprecipitation of FLT3 (anti-FLT3 and anti-P-Tyr); type: cell-based

COc1cc(C2=C(c3c[nH]c4ncccc34)C(=O)NC2=O)cc(OC)c1OC [DHF150, 3-(7-Azaindol-3-yl)-4-(3,4,5-trimethoxyphenyl)-1H-pyrrole-2,5-dione]
phosphorylation of downstream-targets STAT5, ERK and AKT [1]: dephosphorylation
sub-G1-cell fraction (induction of apoptosis) [2]: statistically very significant dose-dependent increase
effect in combination with cytarabine [3]: synergistic effects
effect in combination with daunorubicine [3]: synergistic effects
induction of apoptosis [4]: No significant induction of apoptosis
colony formation ([5]; 10 μM): reduced to a minimum
reduction in colony formation ([5]; up to 5 μM): no significant reduction
induction of apoptosis, percentage of apoptotic cells on top of ground apoptosis [6]: 17-28%
inhibition of FLT3-kinase [7]: ATP competitive inhibition
phosphorylation of FLT3 [8]: dephosphorylation

COc1cc(C2=C(c3c[nH]c4ccccc34)C(=O)NC2=O)cc(OC)c1OC [DHF125, 3-(Indole-3-yl)-4-(3,4,5-trimethoxyphenyl)-1H-pyrrole-2,5-dione]
phosphorylation of downstream-targets STAT5, ERK and AKT [1]: dephosphorylation
sub-G1-cell fraction (induction of apoptosis) [2]: statistically very significant dose-dependent increase
effect in combination with cytarabine [3]: synergistic effects
effect in combination with daunorubicine [3]: synergistic effects
induction of apoptosis [4]: No significant induction of apoptosis
induction of apoptosis, percentage of apoptotic cells on top of ground apoptosis [6]: 10-17%
inhibition of FLT3-kinase [7]: ATP competitive inhibition
phosphorylation of FLT3 [8]: dephosphorylation
